Values after ≈ are worked out from the molar mass of the structure shown.
Assays:
[1] = system: Trypanosoma brucei; test: Antitrypanosomal activity against bloodstream form of Trypanosoma brucei clone 427-221a measured after 24 hrs by resazurin dye based assay; type: functional
[2] = system: Escherichia coli; test: Antibacterial activity against Escherichia coli NCTC 10538; type: functional
[3] = system: Staphylococcus epidermidis; test: Antibacterial activity against Staphylococcus epidermidis 834/19; type: functional
[4] = system: Staphylococcus epidermidis; test: Potency index, ratio of ciprofloxacin MIC to test compound MIC for antibacterial activity against Staphylococcus epidermidis 825/19; type: functional
[5] = system: Staphylococcus aureus; test: Antibacterial activity against Staphylococcus aureus ATCC 29213; type: functional
[6] = (§1) Cytotoxicity against human HL-60 cells assessed as reduction in cell viability measured after 24 hrs by resazurin dye based assay; type: toxicity; conditions: HL-60 cells
[7] = system: HL-60; test: as §1; type: toxicity; conditions: hl-60, 24 h
[8] = system: Staphylococcus epidermidis; test: Antibacterial activity against Staphylococcus epidermidis 848/19; type: functional
[9] = system: Staphylococcus epidermidis; test: Antibacterial activity against Staphylococcus epidermidis 825/19; type: functional
[10] = system: Staphylococcus epidermidis; test: Antibacterial activity against Staphylococcus epidermidis 845/19; type: functional
[11] = system: Staphylococcus epidermidis; test: Antibacterial activity against Staphylococcus epidermidis ATCC 35984; type: functional
[12] = system: Staphylococcus aureus; test: Antibacterial activity against Staphylococcus aureus ATCC 6538; type: functional
[13] = system: Pseudomonas aeruginosa; test: Antibacterial activity against Pseudomonas aeruginosa […]; type: functional
[14] = Selectivity ratio of GI50 for cytotoxicity against human HL-60 cells to GI50 for antitrypanosomal activity against bloodstream form of Trypanosoma brucei clone 427-221a; type: toxicity, cell-based; conditions: read-out: RatioGI50
[15] = system: Staphylococcus epidermidis; test: Antibacterial activity against Staphylococcus epidermidis 830/19; type: functional
[16] = system: Staphylococcus epidermidis; test: Antibacterial activity against Staphylococcus epidermidis 829/19; type: functional
[17] = system: Staphylococcus aureus; test: Antibacterial activity against Staphylococcus aureus NCTC 4163; type: functional
[18] = system: Escherichia coli; test: Antibacterial activity against Escherichia coli ATCC 25922; type: functional
[19] = system: Staphylococcus aureus; test: Antibacterial activity against Staphylococcus aureus ATCC 25923; type: functional
[20] = system: Pseudomonas aeruginosa; test: Antibacterial activity against Pseudomonas aeruginosa ATCC 15442; type: functional
[21] = system: Staphylococcus epidermidis; test: Potency index, ratio of ciprofloxacin MIC to test compound MIC for antibacterial activity against Staphylococcus epidermidis 845/19; type: functional
[22] = Selectivity ratio of MIC for cytotoxicity against human HL-60 cells to MIC for antitrypanosomal activity against bloodstream form of Trypanosoma brucei clone 427-221a; type: toxicity, cell-based
[23] = system: Staphylococcus epidermidis; test: Antibacterial activity against Staphylococcus epidermidis 851/19; type: functional
[24] = system: Staphylococcus epidermidis; test: Antibacterial activity against Staphylococcus epidermidis ATCC 12228; type: functional
[25] = system: Staphylococcus epidermidis; test: Antibacterial activity against Staphylococcus epidermidis 840/19; type: functional
[26] = system: Staphylococcus epidermidis; test: Potency index, ratio of ciprofloxacin MIC to test compound MIC for antibacterial activity against Staphylococcus epidermidis 830/19; type: functional

Compound	GI50 [1] [µM]	MIC [1] [µM]	MIC [2] [µg/mL]	MIC [3] [µg/mL]	MIC [5] [µg/mL]	GI50 at 24 h [6] [µM]	MIC [7] [µM]	MIC [8] [µg/mL]	MIC [9] [µg/mL]	MIC [10] [µg/mL]	MIC [11] [µg/mL]	MIC [12] [µg/mL]	MIC [13] [µg/mL]	selectivity ratio [14]	MIC [15] [µg/mL]	MIC [16] [µg/mL]	MIC [17] [µg/mL]	MIC [18] [µg/mL]	MIC [19] [µg/mL]	MIC [20] [µg/mL]	further results
CO[C@H]([C@H](C)[C@H]1O[C@@]2(CC[C@@](C)([C@H]3CC[C@@](CO)([C@@H]4O[C@@H]([C@H]5O[C@@](O)(COC(=O)Nc6ccccc6)[C@H](C)C[C@@H]5C)C[C@@H]4C)O3)O2)C[C@H](O)[C@H]1C)[C@H](C)C(=O)O	0.27	1 (≈ 0.792 µg/mL)	> 256	0.5 (≈ 0.631 µM)	0.25 (≈ 0.316 µM)	8.94	100 (≈ 79.2 µg/mL)	0.5 (≈ 0.631 µM)	0.25 (≈ 0.316 µM)	0.5 (≈ 0.631 µM)	0.5 (≈ 0.631 µM)	0.25 (≈ 0.316 µM)	> 256	33.1	0.25 (≈ 0.316 µM)	0.25 (≈ 0.316 µM)	0.25 (≈ 0.316 µM)	> 256	0.25 (≈ 0.316 µM)	> 256	Ratio [4]: <=256; Ratio [21]: <=256; selectivity ratio [22]: 100; MIC [23]: 0.5 µg/mL (≈ 0.631 µM); MIC [24]: 0.25 µg/mL (≈ 0.316 µM); MIC [25]: 0.5 µg/mL (≈ 0.631 µM); Ratio [26]: <=256
CCCCCCCCCC(=O)OC[C@]1(O)O[C@H]([C@H]2C[C@H](C)[C@H]([C@]3(CO)CC[C@H]([C@]4(C)CC[C@]5(C[C@H](O)[C@@H](C)[C@@H]([C@@H](C)[C@@H](OC)[C@H](C)C(=O)O)O5)O4)O3)O2)[C@@H](C)C[C@H]1C	0.038	1 (≈ 0.827 µg/mL)	> 256	2 (≈ 2.42 µM)	2 (≈ 2.42 µM)	10	100 (≈ 82.7 µg/mL)	2 (≈ 2.42 µM)	1 (≈ 1.21 µM)	2 (≈ 2.42 µM)	2 (≈ 2.42 µM)	2 (≈ 2.42 µM)	> 256	263	2 (≈ 2.42 µM)	2 (≈ 2.42 µM)	2 (≈ 2.42 µM)	> 256	1 (≈ 1.21 µM)	> 256	selectivity ratio [22]: 100; MIC [23]: 2 µg/mL (≈ 2.42 µM); MIC [24]: 2 µg/mL (≈ 2.42 µM); MIC [25]: 2 µg/mL (≈ 2.42 µM)
